Measurements: EP2687509A2, “Dicarboxyimides derivatives for use in the treatment of cancer” (Warszawski Uniwersytet Medyczny, priority 2012, dated 2014)

Assays:
HeLa cells = assay: MTT cytotoxicity assay, HeLa cells; format: cell-based; details: Homo sapiens, 48 h incubation, * = compound precipitated at 1 mM from cell cultures
Procedure: (§1) A series of dicarboximides derivatives (table 1) was tested for cytotoxic properties against four cell lines. The tests were conducted by means of MTT assay where yellow tetrazole salt was processed by the dehydrogenases in mitochondria of live cells into violet formazan. The following cell lines were used:
- HeLa cells (uterine cervix cancer)
(§2) 1. HeLa, K562, HL60, HUVEC cells in an amount of 7 thousand cells / well (in 200 µL medium) were seeded in 96-well plates. Cells were incubated overnight in an incubator (37°C, 5% CO2)
(§3) 2. Test compounds were dissolved in DMSO and added in an amount of 2µL to the surface of the cells to give the following final concentrations in the cell culture (1 mM, 10 µm, 100 nM, 1 nM). As a control, cells exposed to 1% DMSO were used.
(§4) 3. Cytotoxicity of the test compounds was evaluated by MTT test. After 48-hour incubation of HeLa, K562, HL60 or HUVEC cells with the test compounds, MTT (5mg/mL) was added in an amount of 25µL/well. MTT, a yellow tetrazolium salt was reduced to purple formazan by mitochondrial dehydrogenases of living cells. The amount of formazan could be determined spectrophotometrically and was proportional to the number of live cells. Cells were incubated with MTT for 2 hours in an incubator (37°C, 5% CO2). Next, lysis buffer containing SDS and DMF was added (95µL/well) to each well and incubated overnight at 37°C, 5% CO2.
(§5) 4. The plates were analyzed by reading the absorbance at a wavelength of 570 nm and 650 nm using the plate-reader Fluostar Omega. The measured absorbance at 570 nm is proportional to the number of living cells. IC50 values (concentration of compound causing 50% cell mortality) were read from the charts by interpolation to 50% cell survival.

K562 cells = assay: MTT cytotoxicity assay, K562 cells; format: cell-based, human; details: Homo sapiens, K562, 48 h, 48 h incubation, * = compound precipitated at 1 mM from cell cultures
Procedure: as §1
- K562 cells (human chronic myelogenous leukaemia) and
as §2, §3, §4, §5

HUVEC cells = assay: MTT cytotoxicity assay, HUVEC cells; format: cell-based; details: Homo sapiens, 48 h incubation, * = compound precipitated at 1 mM from cell cultures
Procedure: as §1
- HUVEC cells (normal human endothelial cells).
as §2, §3, §4, §5

SMILES | IC50 (HeLa cells) | IC50 (K562 cells) | IC50 (HUVEC cells)
CN(C)CCN1C(=O)C2C(C1=O)C1(c3ccccc3)CC2(c2ccccc2)C(c2ccccc2)=C1c1ccccc1 (centres unmarked) [a1] | 1 µM | 1 µM | > 1000 µM
CN(C)CCCN1C(=O)C2C(C1=O)C1(c3ccccc3)CC2(c2ccccc2)C(c2ccccc2)=C1c1ccccc1 (centres unmarked) [a2] | 1 µM | 1 µM | 4 µM
CCC12C(=O)C(CC)(C(c3ccccc3)=C1c1ccccc1)C1C(=O)N(CC(O)CN(C)C)C(=O)C12 (centres unmarked) [a8] | > 1000 µM | > 1000 µM | 
CC(C)NCC(O)CN1C(=O)C2C(C1=O)C1(c3ccccc3)CC2(c2ccccc2)C(c2ccccc2)=C1c1ccccc1 (centres unmarked) [a9] | 1 µM | 1 µM | 1 µM
CN(C)CC(O)CN1C(=O)C2C(C1=O)C1(c3ccccc3)CC2(c2ccccc2)C(c2ccccc2)=C1c1ccccc1 (centres unmarked) [a10] | 1 µM | 1 µM | 1 µM
CC(C)NCC(O)CN1C(=O)C2C(C1=O)C1(C)C(=O)C2(C)C(c2ccccc2)=C1c1ccccc1 (centres unmarked) [a11] | 90 µM | 90 µM | 70 µM
CN(C)CC(O)CN1C(=O)C2C(C1=O)C1(C)C(=O)C2(C)C(c2ccccc2)=C1c1ccccc1 (centres unmarked) [a12] | 100 µM | 90 µM | 100 µM
COC12C=CC(CC1)C1C(=O)N(CCN(C)C)C(=O)C12 (centres unmarked) [b1] | > 1000 µM | > 1000 µM | 
CCN(CC)CCN1C(=O)C2C3C=CC(OC)(CC3)C2C1=O (centres unmarked) [b2] | > 1000 µM | > 1000 µM | 
COC12C=CC(CC1)C1C(=O)N(CCN3CCOCC3)C(=O)C12 (centres unmarked) [b3] | > 1000 µM | > 1000 µM | 
COC12C=CC(CC1)C1C(=O)N(CCN3CCCCC3)C(=O)C12 (centres unmarked) [b4] | > 1000 µM | > 1000 µM | 
COC12C=CC(CC1)C1C(=O)N(CCCN(C)C)C(=O)C12 (centres unmarked) [b5] | > 1000 µM | > 1000 µM | 
CC(=O)OC12C=CC(OC(C)=O)(CC1)C1C(=O)N(CCN(C)C)C(=O)C12 (centres unmarked) [b6] | > 1000 µM | > 1000 µM | 
CCN(CC)CCN1C(=O)C2C(C1=O)C1(OC(C)=O)C=CC2(OC(C)=O)CC1 (centres unmarked) [b7] | > 1000 µM | > 1000 µM | 
CC(=O)OC12C=CC(OC(C)=O)(CC1)C1C(=O)N(CCN3CCOCC3)C(=O)C12 (centres unmarked) [b8] | > 1000 µM | > 1000 µM | 
CC(=O)OC12C=CC(OC(C)=O)(CC1)C1C(=O)N(CCN3CCCCC3)C(=O)C12 (centres unmarked) [b9] | > 1000 µM | > 1000 µM | 
CC(=O)OC12C=CC(OC(C)=O)(CC1)C1C(=O)N(CCCN(C)C)C(=O)C12 (centres unmarked) [b10] | > 1000 µM | > 1000 µM | 
CCN(CC)CCN1C(=O)C2C3C(C)=CC(C)(CC3(C)C)C2C1=O (centres unmarked) [b12] | 1000 µM | > 1000 µM | 
CC1=CC2(C)CC(C)(C)C1C1C(=O)N(CCN3CCCCC3)C(=O)C12 (centres unmarked) [b14] | 100 µM | 100 µM | 
CC(C)COC12CCC(C(=O)C1)C1C(=O)N(CCN(C)C)C(=O)C12 (centres unmarked) [c1] | > 1000 µM | > 1000 µM | 
CCN(CC)CCN1C(=O)C2C3CCC(OCC(C)C)(CC3=O)C2C1=O (centres unmarked) [c2] | > 1000 µM | > 1000 µM | 
CC(C)COC12CCC(C(=O)C1)C1C(=O)N(CCN3CCOCC3)C(=O)C12 (centres unmarked) [c3] | > 1000 µM | > 1000 µM | 
CC(C)COC12CCC(C(=O)C1)C1C(=O)N(CCN3CCCCC3)C(=O)C12 (centres unmarked) [c4] | > 1000 µM | > 1000 µM | 
CC(C)COC12CCC(C(=O)C1)C1C(=O)N(CCCN(C)C)C(=O)C12 (centres unmarked) [c5] | > 1000 µM | > 1000 µM | 
CCOC(=O)C1CC2C(=O)CC1(C)C1C(=O)N(CCN(CC)CC)C(=O)C21 (centres unmarked) [c7] | > 1000 µM | > 1000 µM | 
CCOC(=O)C1CC2C(=O)CC1(C)C1C(=O)N(CCN3CCOCC3)C(=O)C21 (centres unmarked) [c8] | > 1000 µM | > 1000 µM | 
CCOC(=O)C1CC2C(=O)CC1(C)C1C(=O)N(CCN3CCCCC3)C(=O)C21 (centres unmarked) [c9] | > 1000 µM | > 1000 µM | 
CCOC(=O)C1CC2C(=O)CC1(C)C1C(=O)N(CCCN(C)C)C(=O)C21 (centres unmarked) [c10] | > 1000 µM | > 1000 µM | 
